Tested on: 857933-349-R-J2-PDC complex spheroid viability
Test: Anticancer human tumor 857933-349-R-J2-PDC patient-derived colon adenocarcinoma cell line growth inhibition [POLQ]
Details: for IC50: curve of first compound; for viability, T/C: stronger effect = lower value
Method: Multicellular complex tumor spheroid response to Polymerase (POL) inhibitors (novobiocin, ART-558, RP6685) in combination with a variety of drugs and investigational agents in selected tumor cell lines
The POL inhibitors (novobiocin, ART-558, and RP6685) were evaluated both individually and in combination with standard of care and investigational anticancer small molecules within a complex spheroid model of solid tumors. . Complex spheroids include a stromal component modeled by human endothelial cells (HUVEC) and fibroblasts modeled by human mesenchymal stem cells (MSCs). The concentration ranges selected for each drug and investigational agent were based upon clinically achievable concentrations if the clinical Cmax of the agent was known.
Compounds. The drugs and investigational agents: novobiocin (NSC847541), ART-558 (NSC835418), RP-6685 (NSC848927), peposertib (NSC802822), ceralasertib (NSC780249), elimusertib (NSC800525), camonsertib (NSC841442), AZD-1390 (NSC803789), olaparib (NSC753686), talazoparib (NSC767125), rucaparib (NSC756644), sotorasib (NSC818433), MRTX-1133 (NSC836407), SN-38 (NSC673596), topotecan (NSC609699), epotoside (NSC141540), doxorubicin (NSC123127), gemcitabine (NSC613327), 5-fluorouracil (NSC19893), paclitaxel (NSC125973), vemurafenib (NSC761431), MSA-2 (NSC828583), SN-011 (NSC837082), adavosertib (NSC754352), prexasertib (NSC758257), carboplatin (NSC241240) and oxaliplatin (NSC266046), were obtained from the National Cancer Institute (NCI) Developmental Therapeutics Program Chemical Repository (21). The FDA-approved anticancer drug set is available from the Developmental Therapeutics Program at https://dtp.cancer.gov/organization/dscb/obtaining/. […] The stock solutions were prepared in dimethyl sulfoxide (DMSO, Sigma-Aldrich, St. Louis, MO, cat. D2650), except for the platinum compounds which were prepared in saline (Quality Biological, Gaithersburg, MD, cat. 114-055-101), at 800-fold the tested concentration and stored at -70 degrees C prior to their use. All drugs and investigational agents were tested over a range starting from a high concentration at or near the clinical Cmax and decreasing in half-log increments. If the clinical Cmax for an agent had not been determined, the highest concentration tested was 10 microM, except for SN-38, which was tested at a high concentration of 1 microM.
Cell Culture. All cells were maintained in an incubator at 37 degrees C and 5% CO2 with 95% humidity. The PDC lines were cultured according to standard operating procedures established by the NCI PDMR (https://pdmr.cancer.gov). Table 3 of the manuscript, lists the cell lines along with the number of the three cell types plated to form the mct-spheroids and media for tumor cell growth. After thawing, all PDC lines, except 997537-175-T-J1-PDC and 415267-285-R-J2-PDC, were cultured in Matrigel-coated flasks prepared with a working solution of 1X Ham's F-12 nutrient mix, without supplementation (Thermo Fisher Scientific, cat. 11765054), 100 U/mL penicillin-streptomycin (Thermo Fisher Scientific, cat. 15140122), and 2.5% Matrigel (Corning Inc., Corning, NY, cat. 354248) for the first three passages. The two PDC lines 997537-175-T-J1-PDC and 415267-285-R-J2-PDC were cultured on uncoated flasks. The 857933-349-R-J2-PDC line was cultured in 6C/Colon 1B media containing advanced DMEM/F-12 (Thermo Fisher Scientific, cat. 12634028), 10 mM HEPES (Thermo Fisher Scientific, cat. 15630080), 1X GlutaMAX supplement (Thermo Fisher Scientific, cat. 35050061), 0.1 mg/mL primocin (InvivoGen, San Diego, CA, cat. ant-pm-2), 10% defined fetal bovine serum, heat inactivated (HyClone Laboratories Inc., Logan, UT, cat. SH30070.03HI), 50% L-WRN conditioned media (ATCC, cat. CRL-3276), 1.25 mM N-Acetyl-L-cysteine (Sigma-Aldrich, cat. A9165), 10 mM nicotinamide (Sigma-Aldrich, cat. N0636), 1X B-27 supplement (Thermo Fisher Scientific, cat. 17504044), 1X N-2 supplement (Thermo Fisher Scientific, cat. […]
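Also: spheroids exposed to compounds for seven days before readout.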

Q: With `Nc1ccn(C2OC(CO)C(O)C2(F)F)c(=O)n1` (configuration not stated) + COC1C(OC(N)=O)C(O)C(Oc2ccc3c(O)c(NC(=O)c4ccc(O)c(CC=C(C)C)c4)c(=O)oc3c2C)OC1(C)C as the molecule, how does the IC50 (second compound 0.0316 µM) read?
A: 0.159 µM

Q: What about the IC50 (second compound 0.1 µM) of the same molecule?
A: 0.152 µM

Q: What about the IC50 (second compound 0.316 µM) of the same molecule?
A: 0.148 µM

Q: And the IC50 (second compound 1 µM)?
A: 0.164 µM

Q: What about the IC50 (second compound 3.16 µM) of the same molecule?
A: 0.138 µM

Q: And the IC50 (second compound 10 µM)?
A: 0.162 µM

Q: What about the viability, T/C (second compound 0.0316 µM, first compound 0.0316 µM) of the same molecule?
A: 68.6%

Q: What about the viability, T/C (second compound 0.0316 µM, first compound 0.1 µM) of the same molecule?
A: 63.7%

Q: And the viability, T/C (second compound 0.0316 µM, first compound 0.316 µM)?
A: 30.3%

Q: And the viability, T/C (second compound 0.0316 µM, first compound 1 µM)?
A: 17.6%

Q: What about the viability, T/C (second compound 0.0316 µM, first compound 3.16 µM) of the same molecule?
A: 12.9%

Q: And the viability, T/C (second compound 0.0316 µM, first compound 10 µM)?
A: 11.4%

Q: And the viability, T/C (second compound 0.1 µM, first compound 0.0316 µM)?
A: 91.6%

Q: And the viability, T/C (second compound 0.1 µM, first compound 0.1 µM)?
A: 63.3%

Q: And the viability, T/C (second compound 0.1 µM, first compound 0.316 µM)?
A: 26.3%

Q: What about the viability, T/C (second compound 0.1 µM, first compound 1 µM) of the same molecule?
A: 17.3%

Q: And the viability, T/C (second compound 0.1 µM, first compound 3.16 µM)?
A: 11.3%

Q: What about the viability, T/C (second compound 0.1 µM, first compound 10 µM) of the same molecule?
A: 11.4%

Q: What about the viability, T/C (second compound 0.316 µM, first compound 0.0316 µM) of the same molecule?
A: 67.3%

Q: What about the viability, T/C (second compound 0.316 µM, first compound 0.1 µM) of the same molecule?
A: 64.5%

Q: What about the viability, T/C (second compound 0.316 µM, first compound 0.316 µM) of the same molecule?
A: 22.4%

Q: What about the viability, T/C (second compound 0.316 µM, first compound 1 µM) of the same molecule?
A: 16.8%

Q: What about the viability, T/C (second compound 0.316 µM, first compound 3.16 µM) of the same molecule?
A: 13.5%

Q: What about the viability, T/C (second compound 0.316 µM, first compound 10 µM) of the same molecule?
A: 10.9%

Q: What about the viability, T/C (second compound 1 µM, first compound 0.0316 µM) of the same molecule?
A: 74.1%

Q: And the viability, T/C (second compound 1 µM, first compound 0.1 µM)?
A: 68.5%

Q: And the viability, T/C (second compound 1 µM, first compound 0.316 µM)?
A: 25.5%

Q: And the viability, T/C (second compound 1 µM, first compound 1 µM)?
A: 19.6%

Q: What about the viability, T/C (second compound 1 µM, first compound 3.16 µM) of the same molecule?
A: 14.5%

Q: And the viability, T/C (second compound 1 µM, first compound 10 µM)?
A: 7.53%

Q: What about the viability, T/C (second compound 3.16 µM, first compound 0.0316 µM) of the same molecule?
A: 82.1%

Q: And the viability, T/C (second compound 3.16 µM, first compound 0.1 µM)?
A: 59.4%

Q: What about the viability, T/C (second compound 3.16 µM, first compound 0.316 µM) of the same molecule?
A: 25.8%

Q: What about the viability, T/C (second compound 3.16 µM, first compound 1 µM) of the same molecule?
A: 16.8%

Q: And the viability, T/C (second compound 3.16 µM, first compound 3.16 µM)?
A: 12.8%

Q: What about the viability, T/C (second compound 3.16 µM, first compound 10 µM) of the same molecule?
A: 11.8%

Q: And the viability, T/C (second compound 10 µM, first compound 0.0316 µM)?
A: 77.7%

Q: What about the viability, T/C (second compound 10 µM, first compound 0.1 µM) of the same molecule?
A: 65.6%

Q: And the viability, T/C (second compound 10 µM, first compound 0.316 µM)?
A: 28.2%

Q: What about the viability, T/C (second compound 10 µM, first compound 1 µM) of the same molecule?
A: 14.9%

Q: And the viability, T/C (second compound 10 µM, first compound 3.16 µM)?
A: 16.3%

Q: And the viability, T/C (second compound 10 µM, first compound 10 µM)?
A: 11.8%

— PubChem BioAssay AID1963836 (Molecular Pharmacology Branch, DTP, NCI, 2024)
